According to US8426420B2, “Heterocyclic pyrazole-carboxamidesas P2Y12 antagonists” (Sanofi, priority 2007, dated 2013):

Tested on: human platelet rich plasma
Experiment: Inhibition of human platelet aggregation, 96-well assay
Format: cell-based
Description: Inhibition of Human Platelet Aggregation
Alternatively to a binding assay which measures a compound's ability to bind to the P2Y12 receptor, the effect on cellular function was also determined. This ability of the compound was evaluated in two platelet aggregation assays: in 96-well plates and with the “Born”-method using single cuvettes.
Whole blood was collected from healthy volunteers using 20 ml syringes containing 2 ml of ACD-A Aqua-Citrat-Dextrose-A, Fresenius). The anticoagulated whole blood was transferred into 15 ml polypropylene conical tubes (10 ml per tube). The tubes were centrifuged for 15 minutes at 150×g at RT without using the centrifuge brake. This procedure leads to a pellet of cellular components and a supernatant of platelet rich plasma (PRP). The PRP layer was collected from each tube and pooled for each donor. To avoid carry over of cellular components following centrifugation, approximately 5 ml of PRP was left in the tube. The platelet concentration was determined using a Coulter Counter.
The 15 ml tubes containing the pellet of cellular components were centrifuged again for 10 minutes at 1940×g. This pelleted out most particulate blood constituents remaining, leaving a layer of Platelet Poor Plasma (PPP). The PPP was collected for each donor. The PRP layer, previously set aside, was diluted with PPP to a final concentration of approximately 3×E8 platelets/ml with the PPP.
The human platelet aggregation assay is performed in 96-well plates using a microtiter plate reader (SpectraMax Plus 384 with SoftMax Pro software from Molecular Devices). In the plate 15 μl of test compound at 10× final concentration in NaCl is mixed with 120 μl fresh PRP and incubated for 5 minutes. Following that incubation period, 15 μl of 40 μM ADP is added to the reaction mix. This addition of ADP is sufficient to induce aggregation in the absence of an inhibitor. The plates are then transferred to the microplate reader and aggregation is measured over 20 minutes. The instrument settings include:
Absorbance at 650 nm, run time 20 minutes with readings in 1-minute intervals and 50 seconds shaking between readings all performed at 37° C.

[1] = ADP-induced aggregation, human platelet rich plasma, 96-well plates, AUC of absorbance over 20 minutes

Row | Molecule | IC50 (Homo sapiens, Platelet, 20 min) | IC50 [1]
1 | C[C@H](NC(=O)c1cc(OCC(=O)N2CCC[C@H]2C(=O)NC2CCC2)n(-c2ccccc2)n1)C(=O)N1CCN(C(=O)OC2CCC2)CC1 [Example 193, 4-[(S)-2-({5-[2-((S)-2-Cyclobutylcarbamoyl-pyrrolidin-1-yl)-2-oxo-ethoxy]-1-phenyl-1H-pyrazole-3-carbonyl}-amino)-propionyl]-piperazine-1-carboxylic acid cyclobutyl ester] | 460 nM | 
2 | CCOC(=O)N1CCN(C(=O)[C@H](CCC(=O)O)NC(=O)c2cc(O[C@@H](C)C(=O)N3CCC[C@H]3C(=O)NC3CC3)n(-c3ccccc3)n2)CC1 [Example 66, 4-[(S)-4-Carboxy-2-({5-[(S)-2-((S)-2-cyclopropylcarbamoyl-pyrrolidin-1-yl)-1-methyl-2-oxo-ethoxy]-1-phenyl-1H-pyrazole-3-carbonyl}-amino)-butyryl]-piperazine-1-carboxylic acid ethyl ester] | 330 nM | 
3 | CCCOC(=O)N1CCN(C(=O)[C@H](CCC(=O)OC)NC(=O)c2cc(OCC(=O)N3CCC[C@H]3C(=O)NC3CCC3)n(-c3ccccc3)n2)CC1 [Example 190, 4-[(S)-2-({5-[2-((S)-2-Cyclobutylcarbamoyl-pyrrolidin-1-yl)-2-oxo-ethoxy]-1-phenyl-1H-pyrazole-3-carbonyl}-amino)-4-methoxycarbonyl-butyryl]-piperazine-1-carboxylic acid propyl ester] | 180 nM | 
4 | CCOC(=O)N1CCN(C(=O)[C@H](CCC(=O)O)NC(=O)c2cc(OCC(=O)N3CC(F)(F)C[C@H]3C(=O)NCC3CC3)n(-c3ccccc3)n2)CC1 [Example 166, 4-[(S)-4-Carboxy-2-({5-[2-((S)-2-(cycloproylmethyl-carbamoyl)-4,4-difluoro-pyrrolidin-1-yl)-2-oxo-ethoxy]-1-phenyl-1H-pyrazole-3-carbonyl}-amino)-butyryl]-piperazine-1-carboxylic acid ethyl ester] |  | 80 nM
5 | CCOC(=O)N1CCN(C(=O)[C@H](CCC(=O)O)NC(=O)c2cc(O[C@@H](C)C(=O)N3CCC[C@H]3C(=O)NCC(F)(F)F)n(-c3ccccc3)n2)CC1 [Example 70, 4-[(S)-4-Carboxy-2-({5-[(S)-2-((S)-2-(2,2,2-trifluoroethylcarbamoyl)-pyrrolidin-1-yl)-1-methyl-2-oxo-ethoxy]-1-phenyl-1H-pyrazole-3-carbonyl}-amino)-butyryl]-piperazine-1-carboxylic acid ethyl ester] | 260 nM | 
6 | CCCCOC(=O)NC1CCN(C(=O)[C@H](CCC(=O)O)NC(=O)c2cc(OCC(=O)N3CCC[C@H]3C(=O)NC3CCC3)n(-c3ccccc3)n2)C1 (stereo partly drawn) [Example 108, (S)-5-(3-Butoxycarbonylamino-pyrrolidin-1-yl)-4-({5-[2-((S)-2-cyclobutylcarbamoyl-pyrrolidin-1-yl)-2-oxo-ethoxy]-1-phenyl-1H-pyrazole-3-carbonyl}-amino)-5-oxo-pentanoic acid] | 1880 nM | 
7 | CCOC(=O)N1CCN(C(=O)[C@H](CCC(=O)O)NC(=O)c2cc(O[C@H](C)C(=O)N3CCC[C@H]3C(=O)N3CCCC3)n(-c3ccccc3)n2)CC1 [Example 64, 4-{(S)-4-Carboxy-2-[(5-{(R)-1-methyl-2-oxo-2-[(S)-2-(pyrrolidine-1-carbonyl)-pyrrolidin-1-yl]-ethoxy}-1-phenyl-1H-pyrazole-3-carbonyl)-amino]-butyryl}-piperazine-1-carboxylic acid ethyl ester] | 190 nM | 
8 | CCOC(=O)N1CCN(C(=O)[C@H](CCC(=O)O)NC(=O)c2cc(OCC(=O)N3CCC[C@H]3C(=O)NC)n(-c3ccccc3)n2)CC1 [Example 7, 4-{(S)-4-Carboxy-2-[(5-{2-[(S)-2-(2-methylcarbamoyl)-pyrrolidin-1-yl]-2-oxo-ethoxy}-1-phenyl-1H-pyrazole-3-carbonyl)-amino]-butyryl}-piperazine-1-carboxylic acid ethyl ester] |  | 1460 nM
9 | CCOC(=O)N1CCN(C(=O)[C@H](CCC(=O)OCCN2CCOCC2)NC(=O)c2cc(OCC(=O)N3CCC[C@H]3C(=O)NC3CCC3)n(-c3ccccc3)n2)CC1 [Example 201, 4-[(S)-2-({5-[2-((S)-2-Cyclobutylcarbamoyl-pyrrolidin-1-yl)-2-oxo-ethoxy]-1-phenyl-1H-pyrazole-3-carbonyl}-amino)-4-(2-morpholin-4-yl-ethoxycarbonyl)-butyryl]-piperazine-1-carboxylic acid ethyl ester] | 570 nM | 
10 | CCOC(=O)N1CCN(C(=O)[C@H](CCC(=O)O)NC(=O)c2cc(OCC(=O)N3CCC[C@H]3c3nc(C4CC4)no3)n(-c3ccccc3)n2)CC1 [Example 180, 4-{(S)-4-Carboxy-2-[(5-{2-[(S)-2-(3-cyclopropyl-[1,2,4]oxadiazol-5-yl)-pyrrolidin-1-yl]-2-oxo-ethoxy}-1-phenyl-1H-pyrazole-3-carbonyl)-amino]-butyryl}-piperazine-1-carboxylic acid ethyl ester] | 450 nM | 
11 | CCOC(=O)N1CCN(C(=O)[C@H](CCC(=O)O)NC(=O)c2cc(OCC(=O)N3CCC[C@H]3C(=O)N(C)C3CCC3)n(-c3ccccc3)n2)CC1 [Example 22, 4-{(S)-4-Carboxy-2-[(5-{2-[(S)-2-(cyclobutyl-methyl-carbamoyl)-pyrrolidin-1-yl]-2-oxo-ethoxy}-1-phenyl-1H-pyrazole-3-carbonyl)-amino]-butyryl}-piperazine-1-carboxylic acid ethyl ester] | 220 nM | 
12 | CCNC(=O)[C@@H]1CCCN1C(=O)COc1cc(C(=O)N[C@@H](CCC(=O)O)C(=O)N2CCN(C(=O)OCC)CC2)nn1-c1ccccc1 [Example 8, 4-{(S)-4-Carboxy-2-[(5-{2-[(S)-2-ethylcarbamoyl-pyrrolidin-1-yl]-2-oxo-ethoxy}-1-phenyl-1H-pyrazole-3-carbonyl)-amino]-butyryl}-piperazine-1-carboxylic acid ethyl ester] | 470 nM | 
13 | O=C(NCC(=O)N1CCN(C(=O)[C@@H]2C[C@H]2c2ccccc2)CC1)c1cc(OCC(=O)N2CCC[C@H]2C(=O)NC2CCC2)n(-c2ccccc2)n1 [Example 246, 5-[2-((S)-2-Cyclobutylcarbamoyl-pyrrolidin-1-yl)-2-oxo-ethoxy]-1-phenyl-1H-pyrazole-3-carboxylic acid {2-oxo-2-[4-((1R,2R)-2-phenyl-cyclopropanecarbonyl)-piperazin-1-yl]-ethyl}-amide] | 560 nM | 
14 | CCOC(=O)N1CCN(C(=O)[C@H](CCC(=O)O)NC(=O)c2cc(OCC(=O)N3CCC[C@H]3C(=O)N3CCCC3)n(-c3ccccc3)n2)CC1 [Example 17, 4-{(S)-4-Carboxy-2-[(5-{2-oxo-2-[(S)-2-(pyrrolidine-1-carbonyl)-pyrrolidin-1-yl]-ethoxy}-1-phenyl-1H-pyrazole-3-carbonyl)-amino]-butyryl}-piperazine-1-carboxylic acid ethyl ester] | 600 nM | 
15 | CCOC(=O)N1CCN(C(=O)[C@H](CCC(=O)O)NC(=O)c2cc(OCC(=O)N3CCC[C@H]3C(=O)NC3CCC3)n(-c3ccccc3)n2)[C@@H](C)C1 [Example 153, (S)-4-[(S)-4-Carboxy-2-({5-[2-((S)-2-cyclobutylcarbamoyl-pyrrolidin-1-yl)-2-oxo-ethoxy]-1-phenyl-1H-pyrazole-3-carbonyl}-amino)-butyryl]-3-methyl-piperazine-1-carboxylic acid ethyl ester] | 430 nM | 
16 | CCOC(=O)N1CCN(C(=O)[C@H](CCC(=O)O)NC(=O)c2cc(OCC(=O)N3CC[C@H]3C(=O)NC3CC3)n(-c3ccccc3)n2)CC1 [Example 40, 4-[(S)-4-Carboxy-2-({5-[2-((S)-2-cyclopropylcarbamoyl-azetidin-1-yl)-2-oxo-ethoxy]-1-phenyl-1H-pyrazole-3-carbonyl}-amino)-butyryl]-piperazine-1-carboxylic acid ethyl ester] | 860 nM | 
17 | CCOC(=O)N1CCN(C(=O)[C@H](CC(=O)O)NC(=O)c2cc(OCC(=O)N3CCC[C@H]3C(=O)NC3CC3)n(-c3ccccc3)n2)CC1 [Example 56, 4-[(S)-3-Carboxy-2-({5-[2-((S)-2-cyclopropylcarbamoyl-pyrrolidin-1-yl)-2-oxo-ethoxy]-1-phenyl-1H-pyrazole-3-carbonyl}-amino)-propionyl]-piperazine-1-carboxylic acid ethyl ester] | 60 nM | 
18 | CCOC(=O)N1CCN(C(=O)[C@H](CCC(=O)OCC2(C)COC2)NC(=O)c2cc(OCC(=O)N3CCC[C@H]3C(=O)NC3CCC3)n(-c3ccccc3)n2)CC1 [Example 203, 4-[(S)-2-({5-[2-((S)-2-Cyclobutylcarbamoyl-pyrrolidin-1-yl)-2-oxo-ethoxy]-1-phenyl-1H-pyrazole-3-carbonyl}-amino)-4-(3-methyl-oxetan-3-ylmethoxycarbonyl)-butyryl]-piperazine-1-carboxylic acid ethyl ester] | 490 nM | 
19 | 4-[2-({5-[2-((S)-2-Cyclobutylcarbamoyl-pyrrolidin-1-yl)-2-oxo-ethoxy]-1-phenyl-1H-pyrazole-3-carbonyl}-amino)-acetyl]-piperazine-1-carboxylic acid 2-methoxy-ethyl ester [Example 254] |  | 750 nM
